Data published in patent US6416987B1, “Mutants of thymidylate synthase and uses thereof” (Sloan Kettering Institute for Cancer Research, priority 1997, dated 2002).

Tests used:
[1] = test system: TS-negative FSthy21 cells transfected with F225W mutant human TS cDNA; type: cell-based, mouse; details: F225W transfectants vs wild-type transfectants
[2] = test system: TS-negative FSthy21 cells transfected with I108A mutant human TS cDNA; assay: Growth inhibition assay (alamar Blue), I108A transfectants; details: I108A transfectants vs wild-type transfectants
Experimental: The mouse TS-negative FSthy21 cells were used as the host for DNA transfections. This cell line, which is a TS-deficient derivative of mouse FM3A cells, was routinely maintained in MEM medium supplemented with 10% fetal bovine serum and 10×10^−5 M thymidine. Transfections were performed by DOTAP, using 10 μg of DNA/culture. Four days after transfection, cells were placed in selective medium, which contain no thymidine and reduced folate. Colonies having the ability to grow in the absence of thymidine were pooled and propagated as a mass culture.
Logarithmically growing suspension mouse TS-20 negative FSthy21 cells transfected with wild-type or variant human TS cDNA were seeded in 96-well plates at 1,000 cells/well in 180 μl of complete medium. […] Cell viability was measured by the alamar Blue™ assay. This method incorporates an oxidation-reduction (REDOX) indicator that both fluoresces and changes color in response to chemical reduction of growth medium resulting from cell growth. To above 96-well cultured cells, 25 μl of Alamar Blue (Alamar, Sacramento, Calif.) (10% of incubation volume) were added according to the manufacturer's instructions. The culture 96-well plates were then incubated at 37° C. for 4 hours. Viable cells induce chemical reduction of the media which results in a change in REDOX color from blue to red. The intensity of red color (and fluoresces) is proportional to the viable cells. After incubation, fluorescence is was read at 530-560 nm excitation wavelength and 590 nm emission wavelength by an automated plate reader (model EL340; Bio-Tek). Drug concentrations needed to reduce cell growth by 50% (IC50 values) were determined graphically by plotting of cell growth verses inhibitor concentration.
The effect of three antifolates and FdUrd on the growth characteristics of transfectants that stably express various TS proteins was evaluated by cytotoxicity studies. Cell growth was measured by the alamar blue assay. IC50 values were calculated as the concentration of inhibitor required to inhibit growth by 50% compared to wild-type transfected cells grown under identical conditions.

HT1080 cells = assay: EMS sensitivity of HT1080 cells (colony formation); type: cell-based; details: Homo sapiens, HT-1080; 400 μg/ml EMS, 18 hr exposure
Experimental: HT1080 cells were seeded into 6-well plates (100-300 cells/well). After overnight incubation to allow cell attachment, The cells were exposed with EMS for 18 hours, washed three times, and then incubated with EMS-free medium for a further 14 days. The range of EMS concentration tested was 100 to 1000 μg of EMS/ml of culture medium. Colonies formed (50 cells) were stained with crystal violet and counted. The concentration of EMS used for the random mutagenesis experiments was determined based on the number of colonies obtained in the EMS-treated test versus EMS concentrations (Sega, 1984; Fanin et al., 1993).

[3] = test system: human colon tumor cell line with Tyr33 to His33 TS; details: cited from earlier work

SMILES: Cc1nc2ccc3ccc(CNc4ccc5c(c4)CN([C@@H](CCC(=O)O)C(=O)O)C5=O)cc3c2c(=O)[nH]1
- resistance, IC50 values greater than wild-type transfectants [1]: 22 fold
- resistance, IC50 values greater than wild-type transfectants [2]: 6 fold

SMILES: CCOS(C)(=O)=O [EMS, Ethylmethanesulfonate]
- inhibition at 400 µg/mL (HT1080 cells): 80%

SMILES: O=c1[nH]c(=O)n([C@H]2C[C@H](O)[C@@H](COP(=O)(O)O)O2)cc1F [FdUMP, 5-fluoro-2-deoxyuridylate]
- resistance conferred by Tyr33 to His33 substitution [3]: 3- to 4 fold
